Results: US8865704B2, “Wnt pathway antagonists” (Siena Biotech S.p.A., priority 2009, dated 2014)

System: Wnt/β-catenin pathway
Assay: Wnt reporter assay (TCF-Luciferase, Firefly) in DBTRG-05MG cells
Assay type: cell-based
Conditions: Homo sapiens, 24 hours after compound addition
Procedure: TCF-Luciferase: Three copies of a 4×TCF responsive elements were cloned into the pcDNA3.1/Zeo(+) vector (Invitrogen) after deletion of the constitutive CMV promoter and the insertion of the Firefly Luciferase from Promega (phFL-TK) to measure the activity of the Wnt/β-catenin pathway. The resulting plasmid was sequenced for quality control.
Cells were grown in 20 μg/ml Zeocin and 20 μg/ml Zeocin plus 30 μg/ml Hygromicin respectively. The cells were plated at a density of 6500 cells/well in poly-D-lysine pre-treated 96 well-plates.
IC50 determination: 36 hours after plating cells were incubated with 8-points (60 μM-40 μM-20 μM-10 μM-5 μM-1.66 μM-0.55 μM-0.185 μM) dilutions compound (0.6% DMSO (v/v)). Each compound was tested in triplicate in single plate. Luciferase detection was done with Dual-Luciferase Reporter Assay System (Promega). 24 hours after compound addition, media was removed and 30 μl of 1× lysis buffer was added to each well for 30 minutes. To each well 45 μl of Dual-Glo Luciferase reagent (Promega) were added and after 1 second delay Luciferase was detected for 1 second using Mithras LB940 instrument. After Firefly luciferase quantification 45 μl of Dual Stop & Glo reagent (Promega) were added to each well and Firefly Renilla was detected using the same parameters described before.
Data were expressed as % of control for Firefly and Renilla luciferase independently; values were calculated using XLFit version 4.2, with a four parameters sigmoid function (XLFit model 205).

| SMILES | IC50 [µM] |
| --- | --- |
| COc1ccc2c(c1)c(=O)n(C[C@H]1CC[C@H](C(=O)N3CCN(C(=O)C(C)OC)CC3)CC1)c(=O)n2C (stereo partly drawn) [Example 142] | 0.3 to 30 |
| Cc1ccc2[nH]c(=O)n(C[C@H]3CC[C@H](C(=O)N4CCN(C(=O)C(C)C)CC4)CC3)c(=O)c2c1 [Example 143] | 0.3 to 30 |
| COCC(=O)N1CCN(C(=O)[C@H]2CC[C@H](Cn3c(=O)c4cc(OC)ccc4n(C)c3=O)CC2)[C@H](C)C1 [Example 144] | 0.3 to 30 |
| COCC(=O)N1CCN(C(=O)[C@H]2CC[C@H](Cn3c(=O)c4cc(OC)ccc4n(C)c3=O)CC2)[C@@H](C)C1 [Example 145] | 0.3 to 30 |
| COc1ccc2c(c1)c(=O)n(C[C@H]1CC[C@H](C(=O)N3CCN(C(=O)c4ccncn4)CC3)CC1)c(=O)n2C [Example 147] | 0.3 to 30 |
| COc1ccc2c(c1)c(=O)n(C[C@H]1CC[C@H](C(=O)Nc3ccc(C)nc3)CC1)c(=O)n2C [Example 148] | 0.3 to 30 |
| COCC(=O)N1CCN(C(=O)[C@H]2CC[C@H](Cn3c(=O)c4cc(OC)ccc4n(C)c3=O)CC2)C[C@@H]1C [Example 149] | 0.3 to 30 |
| COc1ccc2c(c1)c(=O)n(C[C@H]1CC[C@H](C(=O)N3CCN(C(=O)C4CC4)[C@H](C)C3)CC1)c(=O)n2C [Example 150] | 0.3 to 30 |
| COCC(=O)N1CCN(C(=O)[C@H]2CC[C@H](Cn3c(=O)c4cc(OC)ccc4n(C)c3=O)CC2)C[C@H]1C [Example 151] | 0.3 to 30 |
| COc1ccc2[nH]c(=O)n(C[C@H]3CC[C@H](C(=O)N4CCN(C(=O)C5CC5)[C@@H](C)C4)CC3)c(=O)c2c1 [Example 152] | 0.3 to 30 |
| COc1ccc2c(c1)c(=O)n(C[C@H]1CC[C@H](C(=O)Nc3cccnc3)CC1)c(=O)n2C [Example 153] | 0.3 to 30 |
| COc1ccc2c(c1)c(=O)n(C[C@H]1CC[C@H](C(=O)Nc3ccc(OC)nc3)CC1)c(=O)n2C [Example 154] | 0.3 to 30 |
| COc1ccc2c(c1)c(=O)n(C[C@H]1CC[C@H](C(=O)Nc3ccc(OC)nc3OC)CC1)c(=O)n2C [Example 155] | 0.3 to 30 |
| COc1ccc2c(c1)c(=O)n(C[C@H]1CC[C@H](C(=O)N3CCN(C(=O)C4CC4)[C@@H](C)C3)CC1)c(=O)n2C [Example 156] | 0.3 to 30 |
| COc1ccc2[nH]c(=O)n(C[C@H]3CC[C@H](C(=O)N4CCN(C(=O)C5CC5)[C@H](C)C4)CC3)c(=O)c2c1 [Example 157] | 0.3 to 30 |
| COc1ccc2[nH]c(=O)n(C[C@H]3CC[C@H](C(=O)N4CCN(C(=O)C5CC5)CC4)CC3)c2n1 [Example 158] | 0.3 to 30 |
| COCC(=O)N1CCN(C(=O)[C@H]2CC[C@H](Cn3c(=O)[nH]c4ccc(OC)cc4c3=O)CC2)C[C@@H]1C [Example 159] | 0.3 to 30 |
| COc1ccc2[nH]c(=O)n(C[C@H]3CC[C@H](C(=O)N4CCN(C)C(=O)C4)CC3)c2c1 [Example 160] | 0.3 to 30 |
| CCOc1ccc2[nH]c(=O)n(C[C@H]3CC[C@H](C(=O)N4CCN(C(=O)C5CC5)CC4)CC3)c(=O)c2c1 [Example 161] | 0.3 to 30 |
| CCOc1ccc2[nH]c(=O)n(C[C@H]3CC[C@H](C(=O)N4CCN(C(=O)C(C)C)CC4)CC3)c(=O)c2c1 [Example 162] | 0.3 to 30 |
| Cn1c(=O)n(C[C@H]2CC[C@H](C(=O)N3CCN(C(=O)C4CC4)CC3)CC2)c2cc(C(F)(F)F)ccc21 [Example 163] | 0.3 to 30 |
| Cn1c(=O)n(C[C@H]2CC[C@H](C(=O)N3CCOCC3)CC2)c2c(Cl)cccc21 [Example 164] | 0.3 to 30 |
| COc1ccc2c(c1)c(=O)n(C[C@H]1CC[C@H](C(=O)Nc3ccncc3)CC1)c(=O)n2C [Example 165] | 0.3 to 30 |
| COc1ccc2c(n1)n(C[C@H]1CC[C@H](C(=O)N3CCN(C(=O)C4CC4)CC3)CC1)c(=O)n2C [Example 166] | 0.3 to 30 |
| COc1ccc2c(n1)n(C[C@H]1CC[C@H](C(=O)N3CCOCC3)CC1)c(=O)n2C [Example 167] | 0.3 to 30 |
| Cn1c(=O)n(C[C@H]2CC[C@H](C(=O)N3CCN(C(=O)C4CC4)CC3)CC2)c2c(Cl)cccc21 [Example 168] | 0.3 to 30 |
| CN1CCN(C(=O)[C@H]2CC[C@H](Cn3c(=O)n(C)c4ccc(C(F)(F)F)cc43)CC2)CC1=O [Example 170] | 0.3 to 30 |
